Patent US20070281991A1, “Preparation Of Phenol-Amide Compounds With Anti-Oxidizing Properties” (priority 2004, published 2007)

Assay: Inhibitory effect on free radical diphenylpicrylhydrazide, UV spectrophotometry at 517 nm
Details: for Inhibition % / Absorbance at 517 nm: ethanolic solution, 20 micromoles by liter of compound, 100 micromeres by liter of radical (VIII), 30 minutes at 20° C.; for Absorbance at 517 nm: vat 1 cm, control only 1.15
Protocol: The anti-oxidizing potential in solution of the amide-phenol compounds (I) and (II) was evaluated by the degree of their reaction with radical free diphenyl-picrylhydrazide (VIII) following C. T. Ho, Journal of Agricultural and Food Chemistry, 1999, p.
The inhibitory effect of the free radicals claimed for the compounds (Ia) and (IIa) has been evaluated by the measure of their absorbencies in UV spectrophotometry at 517 nanometers in the presence of an excess of radical diphenylpicrylhydrazide (VIII).
Ethanolic solutions containing 20 micromoles by liter of compound to test and 100 micromeres by liter of radical (VIII) agitated for 30 minutes at 20° C. and placed in a vat 1 cm of length.

COC(=O)c1cc(O)c(O)c(O)c1 [Gallate of methyl (IIIa), methyl gallate]
Inhibition %: 71% | Absorbance at 517 nm: 0.33

Cc1c(C)c2c(c(C)c1O)CCC(C)(C(=O)O)O2 (stereo not shown) [TROLOX (IVa), 6-hydroxy-2,5,7,8-tetramethyl chroman-2-carboxylic acid]
Inhibition %: 91% | Absorbance at 517 nm: 0.10

CCCCCCCCCCC(CO)NC(=O)c1cc(O)c(O)c(O)c1 (stereo not shown) [Gallic amide (Ia)]
inhibitory activity compared with TROLOX and methyl gallate (in words) (diphenylpicrylhydrazide radical test): lower than TROLOX but comparable to that of methyl gallate | Inhibition %: 70% | Absorbance at 517 nm: 0.35
